Patent US20260217720A1, “COMPOSITIONS USEFUL FOR MODULATING SPLICING” (Skyhawk Therapeutics, Inc., priority 2023, published 2026)

What was measured:
[1] = system: ATXN3 transcripts containing exon 4; test: ATXN3 Quantitative Splicing Assay (qPCR, E4E5 primers/probe); format: cell-based; conditions: Homo sapiens, SK-N-MC cells, 24 h treatment, read-out: ATXN3 Potency - Splicing E4E5 IC50 Mean
Procedure: Human neuroblastoma SK-N-MC cells were plated in 384-well plates at 20,000 cells/well. Twenty-four hours after plating, cells were treated with compounds for 24 h at appropriate concentrations ranging from 30 μM to 0.6 nM (0.3% DMSO). Treated cells were lysed in 15 μL of lysis buffer, and cDNA was synthesized using the Fast Advanced Cells-to-Ct kit. Two μL of each cDNA was used in qPCR reactions to confirm the exon 4 skipped transcripts of ATXN3. A second set of primers/probe E4E5 was used to detect the transcripts containing exon 4. The third set of primers/probe E8E9 was used to detect total gene level of ATXN3. The qPCR reactions were prepared in 384-well plates in 10 μL volume, using TaqMan™ Fast Advanced Master Mix with primers and probes shown in the table below. Reactions were run in a Quant Studio 6 qPCR instrument with default settings.
The primers and probes are listed below in Table 3.

[2] = system: total ATXN3 protein; test: ATXN3 Total Protein Assay (MSD); format: cell-based, Human; conditions: SK-N-MC cells, 48 hours incubation, read-out: ATXN3 Potency - Protein IC50
Procedure: Human neuroblastoma SK-N-MC cells were seeded at 10,000 cells/well in 384 well plates one day prior to compound treatment. The concentrations of compounds were tested at appropriate doses ranging from 30 μM to 0.6 nM. After incubation for 48 hours, the cells were lysed with 25 μL of lysis buffer containing protease inhibitors, and total ATXN3 protein levels were assessed by Mesoscale Discovery (MSD) assay developed with one pair of anti-ATXN3 antibodies. The capture and detect antibodies were raised in mouse and rabbit respectively. Anti-rabbit MSD-ST antibody was used for secondary antibody.
ATXN3 recombinant protein was used for standards. The readouts were captured with 35 μL of MSD read buffer and multi-array 384-well high binding plates.

SMILES | IC50 [1] | IC50 [2]
Cc1c(C[C@H](C)N)cc2c(NCc3cccs3)cc(Cl)nn12 [Compound 1, (S)-6-(2-aminopropyl)-2-chloro-7-methyl-N-(thiophen-2-ylmethyl)pyrrolo[1,2-b]pyridazin-4-amine] | 101 to 500 nM | 101 to 500 nM
C[C@H](N)Cc1cc2c(NCc3cccs3)cc(Cl)nn2c1Cl [Compound 2, (S)-6-(2-aminopropyl)-2,7-dichloro-N-(thiophen-2-ylmethyl)pyrrolo[1,2-b]pyridazin-4-amine] | 0.01 to 100 nM | –
COC[C@H](N)Cc1cc2c(NCc3cccs3)cc(Cl)nn2c1C [Compound 3, (R)-6-(2-amino-3-methoxypropyl)-2-chloro-7-methyl-N-(thiophen-2-ylmethyl)pyrrolo[1,2-b]pyridazin-4-amine] | 501 to 5000 nM | –
C[C@H](F)[C@H](N)Cc1cc2c(NCc3cccs3)cc(Cl)nn2c1 [Compound 4, 6-((2R,3S)-2-amino-3-fluorobutyl)-2-chloro-N-(thiophen-2-ylmethyl)pyrrolo[1,2-b]pyridazin-4-amine] | 101 to 500 nM | –
Cc1c(C[C@@H](N)CF)cc2c(NCc3cccs3)cc(Cl)nn12 [Compound 5, (R)-6-(2-amino-3-fluoropropyl)-2-chloro-7-methyl-N-(thiophen-2-ylmethyl)pyrrolo[1,2-b]pyridazin-4-amine] | 501 to 5000 nM | 101 to 500 nM
Cc1c(C[C@@H](N)[C@H](C)F)cc2c(NCc3cccs3)cc(Cl)nn12 [Compound 6, 6-((2R,3S)-2-amino-3-fluorobutyl)-2-chloro-7-methyl-N-(thiophen-2-ylmethyl)pyrrolo[1,2-b]pyridazin-4-amine] | 101 to 500 nM | 101 to 500 nM
N[C@@H](CF)Cc1cc2c(NCc3cccs3)cc(Cl)nn2c1 [Compound 7, (R)-6-(2-amino-3-fluoropropyl)-2-chloro-N-(thiophen-2-ylmethyl)pyrrolo[1,2-b]pyridazin-4-amine] | 101 to 500 nM | –
Cc1c(C[C@@H](N)CO)cc2c(NCc3cccs3)cc(Cl)nn12 [Compound 8, (R)-2-amino-3-(2-chloro-7-methyl-4-((thiophen-2-ylmethyl)amino)pyrrolo[1,2-b]pyridazin-6-yl) propan-1-ol] | 0.01 to 100 nM | –
N[C@@H](COC(F)F)Cc1cc2c(NCc3cccs3)cc(Cl)nn2c1Cl [Compound 9, (R)-6-(2-amino-3-(difluoromethoxy)propyl)-2,7-dichloro-N-(thiophen-2-ylmethyl)pyrrolo[1,2-b]pyridazin-4-amine] | 0.01 to 100 nM | –
N[C@@H](CF)Cc1cc2c(NCc3cccs3)cc(Cl)nn2c1Cl [Compound 10, (R)-6-(2-amino-3-fluoropropyl)-2,7-dichloro-N-(thiophen-2-ylmethyl)pyrrolo[1,2-b]pyridazin-4-amine] | 0.01 to 100 nM | –
C[C@H](F)[C@H](N)Cc1cc2c(NCc3cccs3)cc(Cl)nn2c1Cl [Compound 11] | 0.01 to 100 nM | –
